# Measurements published in US10188605B2, “Nanoparticles and nanoparticle compositions” (priority 2010, dated 2019).
# Values joined by “and” are separate entries in the source; they are usually repeats but may differ in a detail not shown here. Equal entries are not always repeated.
# Tests used:
# [1] = Critical micelle concentration of surfactant 1 (surface tension; pyrene I3/I1 fluorescence); assay type: physicochemical
# Description: Pyrene was used as a surrogate for a hydrophobic drug because of its environmentally sensitive fluorescence. […] The intensity ratio between the third (˜384 nm) and the first band (˜372 nm), in particular, is sensitive to changes in the environment. […] The CMC of the surfactant is about 1.4×10^−4 M according to surface tension measurement and 1.5×10^−4 M, according to FIG. 15.
# [2] = Release of entrapped pyrene from SCMs by fluorescence (I3/I1 ratio); assay type: physicochemical; conditions: uncrosslinked reference
# Description: The intensity ratio between the third (˜384 nm) and the first band (˜372 nm), in particular, is sensitive to changes in the environment.
# [3] = in water at 20° C.; cited from earlier work
# [4] = versus camptothecin; cited from earlier work
smiles,measurement,setting,value
"C#CC[N+](CC#C)(CC#C)Cc1ccc(OCCCCCCCCCCCC)cc1.[Br-] [Compound 1, 4-(Dodecyloxy)benzyltripropargylammonium bromide]",critical micelle concentration,[1]; in water,150 µM and 140 µM
same,CMC according to pyrene I3/I1 ratio (FIG. 15),[1]; pyrene fluorescence,150 µM
same,CMC according to surface tension measurement,[1]; surface tension,about 1.4×10^−4 M
same,pyrene I3/I1 in uncrosslinked surfactant below the CMC,[2],0.70
CCCCCCCCCCCC[N+](C)(C)C.[Br-] [Dodecyltrimethyl ammonium bromide],micellar aggregation number,[3],55
CC[C@@](O)(C(=O)[O-])c1cc2n(c(=O)c1CO)Cc1cc3ccccc3nc1-2.[Na+] [CAM-Na],biological activity relative to the parent drug,[4],one-tenth
